Assay results: BindingDB's records for doi:10.1016/S0960-894X(01)80562-X (1994)

Target: Angiotensin-converting enzyme (Rattus norvegicus) (UniProt P47820)
Assay: In vitro inhibitory activity against angiotensin converting enzyme (ACE) in rat was determined

Angiotensin-converting enzyme (Rattus norvegicus), sequence (P47820 whole entry, looked up): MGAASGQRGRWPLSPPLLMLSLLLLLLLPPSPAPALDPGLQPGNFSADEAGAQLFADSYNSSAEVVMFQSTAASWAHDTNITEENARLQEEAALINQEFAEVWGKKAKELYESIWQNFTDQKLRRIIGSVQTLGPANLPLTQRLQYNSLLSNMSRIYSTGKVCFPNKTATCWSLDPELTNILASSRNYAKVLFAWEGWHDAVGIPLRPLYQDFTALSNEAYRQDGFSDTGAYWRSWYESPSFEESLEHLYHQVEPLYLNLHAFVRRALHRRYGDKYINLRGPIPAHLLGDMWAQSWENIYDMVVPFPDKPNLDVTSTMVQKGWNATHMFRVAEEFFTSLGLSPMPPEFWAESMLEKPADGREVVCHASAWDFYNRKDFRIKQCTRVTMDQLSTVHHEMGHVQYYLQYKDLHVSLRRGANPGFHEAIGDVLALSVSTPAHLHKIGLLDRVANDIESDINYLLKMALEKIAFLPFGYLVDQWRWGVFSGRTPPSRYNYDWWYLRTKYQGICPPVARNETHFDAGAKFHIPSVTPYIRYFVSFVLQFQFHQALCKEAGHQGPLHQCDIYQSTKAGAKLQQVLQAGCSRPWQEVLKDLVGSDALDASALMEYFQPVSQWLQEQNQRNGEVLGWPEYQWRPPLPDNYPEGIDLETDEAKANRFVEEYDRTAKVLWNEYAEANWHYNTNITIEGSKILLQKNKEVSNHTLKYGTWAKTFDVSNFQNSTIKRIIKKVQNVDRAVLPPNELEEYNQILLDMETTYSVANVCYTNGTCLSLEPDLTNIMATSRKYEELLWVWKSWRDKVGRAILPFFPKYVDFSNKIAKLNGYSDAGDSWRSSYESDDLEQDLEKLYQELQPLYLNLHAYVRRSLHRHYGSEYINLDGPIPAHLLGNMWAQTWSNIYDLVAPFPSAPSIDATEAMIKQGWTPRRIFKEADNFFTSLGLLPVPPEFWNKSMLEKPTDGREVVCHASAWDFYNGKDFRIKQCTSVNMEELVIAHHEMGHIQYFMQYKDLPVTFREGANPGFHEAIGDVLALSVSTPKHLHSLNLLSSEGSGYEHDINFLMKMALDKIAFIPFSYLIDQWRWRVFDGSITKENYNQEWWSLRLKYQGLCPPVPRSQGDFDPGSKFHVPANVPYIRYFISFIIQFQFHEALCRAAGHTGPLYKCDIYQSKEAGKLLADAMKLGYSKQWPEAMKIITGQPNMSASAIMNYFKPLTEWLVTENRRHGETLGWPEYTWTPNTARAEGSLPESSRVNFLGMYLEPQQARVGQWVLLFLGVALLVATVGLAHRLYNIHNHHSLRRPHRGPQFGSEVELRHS

IC50 [nM] | Structure (SMILES)
20 | O=C(N[C@H]1CCC(=O)N2CC[C@@H](C(=O)O)N2C1=O)[C@@H](S)Cc1ccccc1
7 | O=C(N[C@H]1CCC(=O)N2CCC[C@@H](C(=O)O)N2C1=O)[C@@H](S)Cc1ccccc1
16 | CN1C(=O)CC[C@H](NC(=O)[C@@H](S)Cc2ccccc2)C(=O)N1CC(=O)O
16 | CN1CCC[C@H](NC(=O)[C@@H](S)Cc2ccccc2)C(=O)N1CC(=O)O
6 | CCCN1CCC[C@H](NC(=O)[C@@H](S)Cc2ccccc2)C(=O)N1CC(=O)O
10 | CCCN1C(=O)CC[C@H](NC(=O)[C@@H](S)Cc2ccccc2)C(=O)N1CC(=O)O
12 | O=C(N[C@H]1CCCN2CC[C@@H](C(=O)O)N2C1=O)[C@@H](S)Cc1ccccc1
8 | O=C(N[C@H]1CCCN2CCC[C@@H](C(=O)O)N2C1=O)[C@@H](S)Cc1ccccc1
60 | O=C(O)CN1NCCC[C@H](NC(=O)[C@@H](S)Cc2ccccc2)C1=O
